Data published in patent US7365154B2, “Peptides antagonistic to an anti-angiogenic antibody and uses therefor” (Centocor, Inc., priority 2003, dated 2008).
“Also recorded” adds a separate entry of the source.

How the values were obtained:
[1] = system: CNTO95 mAb; assay: ELISA for CNTO95 binding to synthetic peptide-coated plates; parameters: species or system human; settings: plates coated with 100 μg/ml peptide, absorbance at 450 nm
Method: (§1) To verify the binding activity of synthetic peptides to CNTO95 mAb, ELISAs were performed using peptide-coated plates. PRO-Bind ELISA plates (Falcon) were coated with 100 μl (100 μg/ml) of either CEN 2319, CEN2322 or PBS buffer. Peptide-charged ELISA plates were incubated with 100 μl of various concentrations of CNTO95 mAb for 2 hours at 37° C., and the wells then were washed with PBS plus 0.5% Tween 20 (PBST). Binding was detected with a 1:5,000 dilution of peroxidase-conjugated goat anti-human IgG, Fc gamma fragment antibody (Jackson) and color development with 3,3′,5,5′-tetramethyl-benzidine dihydrochloride (TMB). The reaction was detected by reading the absorbance at 450 nm. PBS-coated wells were used as background control. […] Another set of negative control was performed using mAb CNTO1275 (FIG. 4C). The binding signal is negative.

[2] = system: CNTO95 mAb binding to integrin αVβ3; assay: Competitive ELISA on plates coated with integrin αVβ3; parameters: species or system human; settings: peptide 0 to 200 μg/ml
Method: (§2) Competitive ELISA on microtiter plates coated with integrins αVβ3 or αVβ5 were carried out to evaluate the binding specificity for CEN2319 peptide to CNTO95 mAb. 100 ul of 5 μg/ml either αVβ3 or αVβ5 (Chemicon, Temacula, Calif.) was coated on the ELISA plates at […] over night. Then, 100 μl of 2 μg/ml CNTO95 was pre-incubated at room temperature for 30 minutes with various concentration peptides (100 μl), ranging from 0 to 200 μg/ml. The peptide-antibody mixtures were then added to the integrin-coated microwells. Following incubation at 37° C. for 2 hours, the plates were washed thoroughly, and bound CNTO95 was detected using peroxidase-conjugated goat anti-human IgG, Fc gamma fragment antibody (1:5,000 dilution), followed by substrate addition as above.

[3] = system: CNTO95 mAb binding to integrin αVβ5; assay: Competitive ELISA on plates coated with integrin αVβ5; parameters: species or system human; settings: peptide 0 to 200 μg/ml
Method: as §2

[4] = system: CNTO95; assay: Titration microcalorimetry of synthetic peptides with CNTO95; format: binding, human
Method: Titration microcalorimetry is a technique used to measure equilibrium binding affinity by monitoring the enthalpy of binding as a function of titrant added to second molecule at fixed temperature. To determine binding affinities and stoichiometries of synthetic peptides for CNTO95, titration calorimetry experiments were carried out with a Microcal (Amherst, Mass.) MCS isothermal titration calorimeter. Protein concentrations were measured by absorbance at 280 nm. Aliquots of peptide were titrated into a fixed concentration of CNTO95 at 3 μM in Dulbecco's PBS. Heats of binding are monitored with each injection. Peptides were added until the observed heats approach the heats of diluted peptides into buffer. Calorimetry data were analyzed with Microcal ORIGIN software according to a single-site binding model in each case (Wiseman et al., Anal. Biochem. 179: 131-137, 1989). The model includes an equilibrium binding constant (Kd), a molar binding enthalpy change (ΔH) and a molar binding ratio for the binding reaction at 25° C. Table 3 gives the calculated CNTO95 binding properties of synthetic peptides from titration calorimetry data.

[5] = system: CNTO95; assay: Positional substitution analysis: peptides spotted on nitrocellulose membrane probed with CNTO95; format: binding, human; parameters: key: +++: very strong; ++: strong; +: equivalent; ±: weak; Blank: negative; settings: CEN2319 with one position substituted, + = equivalent
Method: In order to further understand the contribution of each amino acid residue in the binding, systematic substitution at each position were made and tested. The binding analysis was carried out by spotting the various peptides on a nitrocellulose membrane and probing with CNTO95 followed by HRP-conjugated goat-anti-human Fc antibody and color developed using a peroxidase substrate.

[6] = system: M21, human melanoma cells; assay: Cell adhesion assay on vitronectin coated plates, CNTO95 with peptides; format: cell-based; settings: FIG. 7
Method: For cell adhesion assays, Microtiter plates (Linbro-Titertek, ICN Biomedicals, Inc) were coated at 4° C. overnight with vitronectin (1 mg/ml). Immediately before use plates were rinsed with PBS and blocked for 1 hour with 1% BSA/PBS (pH 7.4). Adherent cells (M21, human melanoma cells) were labeled with Calcein AM fluorescent dye (Molecular Probes, Eugene, Oreg.) according to the manufacturer's instructions, harvested, washed twice, and suspended in 0.1% BSA in DMEM medium. Various concentration of Antibodies were incubated with peptides for 1 hrs. Cell density was adjusted to 5×10^5/ml and they were incubated with antibody and peptide solution for 15 min at 37° C. The cell-antibody mixture was added to wells (100 μl per well) and incubated for 1 h at 37° C. Plates were rinsed twice with PBS to remove unbound cells and adhesion was measured in a fluorescence plate reader (Fluoroskan) at 485-538 nm. Cell adhesion to BSA-coated wells served as a negative control. Isotype matched antibodies served as a negative control.

[7] = system: A375.S2 cells (human melanoma cells); assay: Flow cytometry of CNTO95 binding to surface integrins of A375.S2 cells with or without peptides; format: cell-based; settings: CNTO95 only 10 ug/ml, no peptide
Method: For the detection of surface integrins, A375.S2 cells (human melanoma cells) were harvested, rinsed, suspended in unsupplemented RPMI media. The antibody, CNTO95, was incubated at a final concentration of 10 ug/ml with or without peptides at the concentrations given in Table 1 for 1 hr. Then, the cell solution was added and incubated for an additonal 60 minutes on ice followed by addition of PE-labeled goat anti-human antibody IgG-Fc (10 ug/ml). Absence of primary antibody or substitution of primary antibody with isotype matched antibody served as negative controls. Cells were immediately analyzed with a FACS Scan II flow cytometer (Becton Dickinson, Mountain View, Calif.). […] For simplicity, the mean channel fluorescence for each peak was used as the relative staining value (Table 5).

[8] = system: CEN2319 coated plates; assay: ELISA of other antibodies on CEN2319 coated plates; format: binding; settings: negative control antibodies
Method: as §1

Substance: DYRTA ADTTGLQ (DYRTAADTTGLQ; PEPTIDE (1)..(12) Residues 564 to 575 inclusive of human alpha V integrin subunit protein; listed as Homo sapiens) [CEN2322]
- CNTO95 mAb binding to peptide-coated plates [1]: did not bind
- competition with CNTO95 binding to αVβ3 (in words) [2]: did not compete
- competition with CNTO95 binding to αVβ5 (in words) [3]: did not compete
- Comments (binding to CNTO95 by calorimetry) [4]: no evidence for CEN2322 peptide binding to CNTO95 mAb

Substance: DFRSWWDLSGYR [CEN2319]
- CNTO95 mAb binding to peptide-coated plates [1]: recognized specifically; also recorded: specific binding
- competition with CNTO95 binding to αVβ3 (in words) [2]: inhibits
- competition with CNTO95 binding to αVβ5 (in words) [3]: significant inhibition; also recorded: inhibits
- Intensity (relative density of color at each spot) ([5]; listed as D1D): +
- Intensity (relative density of color at each spot) ([5]; listed as D7D): ++
- Intensity (relative density of color at each spot) ([5]; listed as F2F): +
- Intensity (relative density of color at each spot) ([5]; listed as G10G): +
- Intensity (relative density of color at each spot) ([5]; listed as L8L): ++
- Intensity (relative density of color at each spot) ([5]; listed as R3R): +
- Intensity (relative density of color at each spot) ([5]; listed as R12R): +
- Intensity (relative density of color at each spot) ([5]; listed as S4S): +
- Intensity (relative density of color at each spot) ([5]; listed as S9S): +
- Intensity (relative density of color at each spot) ([5]; listed as W5W): ++
- Intensity (relative density of color at each spot) ([5]; listed as W6W): +
- Intensity (relative density of color at each spot) ([5]; listed as Y11Y): +

Substance: SPLFXPW [flanked by cysteine residues which form a disulfide bond]
- CNTO95 mAb binding to peptide-coated plates [1]: no specific binding was detected

Substance: DFRSWWDLEE (Phage Library Derived Sequence) [CEN2553, alternate antagonist peptide, 10-mer]
- effect on the inhibition of cellular adhesion by CNTO95 to vitronectin coated plates [6]: indistinguishable from the peptide CEN2319

Substance: CNTO95: fully human IgG1, kappa monoclonal antibody recognizing integrins αVβ3 and αVβ5
- Mean Channel Fluorescence [7]: 89.7

Substance: CNTO1275: another human mAb to an unrelated antigen
- antibody binding to CEN2319 coated plates [8]: negative
